Measurements published in ChEMBL document CHEMBL1131493, “Inhibitors of farnesyl protein transferase. 4-Amido, 4-carbamoyl, and 4-carboxamido derivatives of 1-(8-chloro-6,11-dihydro-5H-benzo[5,6]- cyclohepta[1,2-b]pyridin-11-yl)piperazine and 1-(3-bromo-8-chloro-6,11- dihydro-5H-benzo[5,6]cyclohepta[1,2-b]pyridin-11-yl)piperazine” (J Med Chem, 1998).

Each molecule was assayed against Protein farnesyltransferase (Homo sapiens, UniProt P49354+P49356) (assay: In vitro inhibition of farnesyltransferase farnesylation of the H-ras oncogene).
Assay type: protein-complex assay
Parameters: Inhibition: concentration or dose not given beside the values

| Compound | IC50 [nM] | Inhibition [%] |
| --- | --- | --- |
| O=C(N1CCN(C2c3ccc(Cl)cc3CCc3cccnc32)CC1)n1ccnc1 (configuration not stated) | 9800 |  |
| O=C(Cc1cc[n+]([O-])cc1)N1CCN(C2c3ccc(Cl)cc3CCc3cccnc32)CC1 (configuration not stated) | 740 |  |
| CC(=O)N1CCC(C(=O)N2CCN([C@@H]3c4ccc(Cl)cc4CCc4cccnc43)CC2)CC1 | 4100 |  |
| COC(=O)N1CCC(CC(=O)N2CCN(C3c4ccc(Cl)cc4CCc4cccnc43)CC2)CC1 (configuration not stated) | 1300 |  |
| CC(C)(C(=O)N1CCN(C2c3ccc(Cl)cc3CCc3cccnc32)CC1)c1ccncc1 (configuration not stated) | 1740 |  |
| NC(=O)N1CCC(CC(=O)N2CCN(C3c4ccc(Cl)cc4C=Cc4cc(Br)cnc43)CC2)CC1 (configuration not stated) | 45 |  |
| CC(C)(C)OC(=O)N1CCC(C(=O)N2CCN(C3c4ccc(Cl)cc4CCc4cccnc43)CC2)CC1 (configuration not stated) |  | 20 |
| CSCC[C@H](N)C(=O)N1CCC(CC(=O)N2CCN(C3c4ccc(Cl)cc4CCc4cccnc43)CC2)CC1 (some centres not stated) | 1890 |  |
| CC(C)(C)OC(=O)NCC(=O)N1CCN(C2c3ccc(Cl)cc3CCc3cccnc32)CC1 (configuration not stated) | 4800 |  |
| O=C(Oc1ccccc1)N1CCN(C2c3ccc(Cl)cc3CCc3cccnc32)CC1 (configuration not stated) | 800 |  |
| CN1CCC(NC(=O)N2CCN(C3c4ccc(Cl)cc4CCc4cccnc43)CC2)CC1 (configuration not stated) | 470 |  |
| O=C(CC1CCNCC1)N1CCN(C2c3ccc(Cl)cc3CCc3cccnc32)CC1 (configuration not stated) | 1250 |  |
| CNC(=S)N1CCC(CC(=O)N2CCN(C3c4ccc(Cl)cc4CCc4cccnc43)CC2)CC1 (configuration not stated) | 880 |  |
| CC(C)(C)NC(=O)N1CCC(CC(=O)N2CCN(C3c4ccc(Cl)cc4CCc4cccnc43)CC2)CC1 (configuration not stated) | 1000 |  |
| CN1CCCC(CC(=O)N2CCN([C@@H]3c4ccc(Cl)cc4CCc4cccnc43)CC2)C1 (some centres not stated) | 700 |  |
| CC(C)(C(=O)N1CCN(C2c3ccc(Cl)cc3CCc3cccnc32)CC1)c1ccccc1 (configuration not stated) | 3300 |  |
| CCN1CCC(CC(=O)N2CCN(C3c4ccc(Cl)cc4CCc4cccnc43)CC2)CC1 (configuration not stated) | 1270 |  |
| CN1CCC(OC(=O)N2CCN(C3c4ccc(Cl)cc4CCc4cccnc43)CC2)CC1 (configuration not stated) |  | 35 |
| CN1CCC(CC(=O)N2CCN([C@H]3c4ccc(Cl)cc4CCc4cccnc43)CC2)CC1 | 640 |  |
| CN1CCCC(CC(=O)N2CCN([C@H]3c4ccc(Cl)cc4CCc4cccnc43)CC2)C1 (some centres not stated) | 600 |  |
| CC(C)(C)OC(=O)N1CCC(CC(=O)N2CCN(C3c4ccc(Cl)cc4CCc4cccnc43)CC2)CC1 (configuration not stated) | 7400 |  |
| O=C(CC1CCCNC1)N1CCN(C2c3ccc(Cl)cc3CCc3cccnc32)CC1 (configuration not stated) | 1100 |  |

| Compound | IC50 [nM] | Inhibition [%] |
| --- | --- | --- |
| CNC(=O)N1CCC(CC(=O)N2CCN(C3c4ccc(Cl)cc4CCc4cccnc43)CC2)CC1 (configuration not stated) | 1050 |  |
| Clc1ccc2c(c1)CCc1cccnc1C2N1CCNCC1 (configuration not stated) | 30300 |  |
| O=C(Cc1cccnc1)N1CCN(C(=O)c2ccc(Cl)cc2)CC1 |  | 32 |
| N[C@@H](CO)C(=O)N1CCC(CC(=O)N2CCN(C3c4ccc(Cl)cc4CCc4cccnc43)CC2)CC1 (some centres not stated) | 1100 |  |
| CC(=O)N1CCC(CC(=O)N2CCN([C@@H]3c4ccc(Cl)cc4CCc4cccnc43)CC2)CC1 | 3500 |  |
| NCNC(=O)N1CCC(CC(=O)N2CCN(C3c4ccc(Cl)cc4CCc4cccnc43)CC2)CC1 (configuration not stated) | 2500 |  |
| O=C(Nc1cccnc1)N1CCN([C@@H]2c3ccc(Cl)cc3CCc3cccnc32)CC1 | 3200 |  |
| O=C(C1CCNCC1)N1CCN(C2c3ccc(Cl)cc3CCc3cccnc32)CC1 (configuration not stated) | 11300 |  |
| CN1CCC(CC(=O)N2CCN([C@@H]3c4ccc(Cl)cc4CCc4cccnc43)CC2)CC1 | 1800 |  |
| O=C(Oc1ccc[n+]([O-])c1)N1CCN(C2c3ccc(Cl)cc3CCc3cccnc32)CC1 (configuration not stated) | 3100 |  |
| CC(C)(C(=O)N1CCN(C2c3ccc(Cl)cc3CCc3cccnc32)CC1)c1ccc[n+]([O-])c1 (configuration not stated) | 1260 |  |
| CCCNC(=O)N1CCC(CC(=O)N2CCN(C3c4ccc(Cl)cc4CCc4cccnc43)CC2)CC1 (configuration not stated) | 880 |  |
| COCC[C@H]1CN(C2c3ccc(Cl)cc3CCc3cc(Br)cnc32)CCN1C(=O)CC1CCNCC1 (some centres not stated) | 69 |  |
| CCNC(=O)N1CCC(CC(=O)N2CCN(C3c4ccc(Cl)cc4CCc4cccnc43)CC2)CC1 (configuration not stated) | 920 |  |
| CC(C(=O)N1CCN(C2c3ccc(Cl)cc3CCc3cccnc32)CC1)c1cccnc1 (configuration not stated) | 4900 |  |
| O=C(CC1CCNCC1)N1CCN(C2c3ccc(Cl)cc3C=Cc3cc(Br)cnc32)CC1 (configuration not stated) | 83 |  |
| O=C(NCc1ccccc1)N1CCN(C2c3ccc(Cl)cc3CCc3cccnc32)CC1 (configuration not stated) | 4100 |  |
| O=C(Oc1ccccc1)N1CCN(C2c3ccc(Cl)cc3C=Cc3cccnc32)CC1 (configuration not stated) | 880 |  |
| O=C(Nc1cc[n+]([O-])cc1)N1CCN(C2c3ccc(Cl)cc3CCc3cccnc32)CC1 (configuration not stated) | 1800 |  |
| O=C(Cc1cc[n+]([O-])cc1)N1CCN(C2c3ccc(Cl)cc3CCc3c(Cl)ccnc32)CC1 (configuration not stated) | 330 |  |
| O=C(Cc1cccnc1)N1CCN(C(c2ccncc2)c2ccc(Cl)cc2)CC1 (configuration not stated) | 48000 |  |

Second part, the molecule after the results:

| IC50 [nM] | Inhibition [%] | Compound |
| --- | --- | --- |
| 1750 |  | NC(=O)N1CCCC(CC(=O)N2CCN(C3c4ccc(Cl)cc4CCc4cccnc43)CC2)C1 (configuration not stated) |
| 820 |  | NC(=O)N1CCC(CC(=O)N2CCN(C3c4ccc(Cl)cc4CCc4cccnc43)CC2)CC1 (configuration not stated) |
|  | 15 | O=C(c1cccc2ncccc12)N1CCN(C2c3ccc(Cl)cc3CCc3cccnc32)CC1 (configuration not stated) |
|  | 19 | N[C@@H](CS)CN1CCN(C2c3ccc(Cl)cc3CCc3cc(Br)cnc32)CC1 (some centres not stated) |
|  | 23 | O=C(C1CCCC2NCCCC21)N1CCN(C2c3ccc(Cl)cc3CCc3cc(Br)cnc32)CC1 (configuration not stated) |
| 54 |  | CN1CCCC(NC(=O)N2CCN(C3c4ccc(Cl)cc4CCc4cc(Br)cnc43)CC2)C1 (configuration not stated) |
| 4300 |  | CC(=O)N1CCCC(C(=O)N2CCN(C3c4ccc(Cl)cc4CCc4cccnc43)CC2)C1 (configuration not stated) |
| 3100 |  | CC(=O)N1CCCC(CC(=O)N2CCN(C3c4ccc(Cl)cc4CCc4cccnc43)CC2)C1 (configuration not stated) |
| 1290 |  | CC(C)(C)OC(=O)N1CCC(CC(=O)N2CCN(C3c4ccc(Cl)cc4CCc4cc(Br)cnc43)CC2)CC1 (configuration not stated) |
| 2100 |  | N[C@@H](CS)C(=O)N1CCN(C2c3ccc(Cl)cc3CCc3cc(Br)cnc32)CC1 (some centres not stated) |
|  | 38 | O=C(c1cccc2ncccc12)N1CCN(C2c3ccc(Cl)cc3CCc3cc(Br)cnc32)CC1 (configuration not stated) |
| 1800 |  | O=C(c1cccc2cccnc12)N1CCN(C2c3ccc(Cl)cc3CCc3cc(Br)cnc32)CC1 (configuration not stated) |
| 1400 |  | NC(=O)N1CCCC2C(C(=O)N3CCN(C4c5ccc(Cl)cc5CCc5cc(Br)cnc54)CC3)CCCC21 (configuration not stated) |
| 78 |  | O=C(CC1CCNCC1)N1CCN([C@H]2c3ccc(Cl)cc3CCc3cc(Br)cnc32)CC1 |
| 660 |  | CN1CCCC(NC(=O)N2CCN(C3c4ccc(Cl)cc4CCc4cccnc43)CC2)C1 (configuration not stated) |
| 108 |  | CC(C)(C)NC(=O)N1CCC(CC(=O)N2CCN(C3c4ccc(Cl)cc4CCc4cc(Br)cnc43)CC2)CC1 (configuration not stated) |
| 1770 |  | O=C(N1CCN(C2c3ccc(Cl)cc3CCc3cc(Br)cnc32)CC1)n1ccnc1 (configuration not stated) |
| 20200 |  | CN(C)c1ccc(C(=O)N2CCN(C3c4ccc(Cl)cc4CCc4cccnc43)CC2)cc1 (configuration not stated) |
| 7000 |  | COC(=O)N1CCCC(CC(=O)N2CCN(C3c4ccc(Cl)cc4CCc4cccnc43)CC2)C1 (configuration not stated) |
| 2100 |  | CN1CCCC(OC(=O)N2CCN(C3c4ccc(Cl)cc4CCc4cccnc43)CC2)C1 (configuration not stated) |
|  | 38 | O=C(c1cccc2c1ccc[n+]2[O-])N1CCN(C2c3ccc(Cl)cc3CCc3cc(Br)cnc32)CC1 (configuration not stated) |
| 230 |  | N[C@@H](CS)C(=O)N1CCC(CC(=O)N2CCN(C3c4ccc(Cl)cc4CCc4cc(Br)cnc43)CC2)CC1 (some centres not stated) |
|  | 45 | NC(=O)N1CCCc2c(C(=O)N3CCN(C4c5ccc(Cl)cc5CCc5cc(Br)cnc54)CC3)cccc21 (configuration not stated) |
| 300 |  | CN1CCCC(OC(=O)N2CCN(C3c4ccc(Cl)cc4CCc4cc(Br)cnc43)CC2)C1 (configuration not stated) |
